Reference: patent US20160038485A1, “PHASE 2 INDUCERS AND RELATED SIGNALING PATHWAYS PROTECT CARTILAGE AGAINST INFLAMMATION, APOPTOSIS AND STRESS” (THE JOHNS HOPKINS UNIVERSITY, priority 2006, published 2016)

Key:
Format in all cases: cell-based, human
[1] = test system: T/C28a2 chondrocytic cells; assay: DNA microarray analysis of shear-induced mRNA response of chondrocytes; set-up: COX-1 (cyclooxygenase-1) microarray intensity ratio (shear/static): dose or concentration left out as unconfirmed; settings: 20 dyn/cm2, 48 hr, mean ± SD
Method: (§1) Cell Culture and Shear Stress Exposure: Human T/C28a2 chondrocytic cells were grown (37° C., 5% CO2) in 1:1 Ham's F-12/DMEM (Biowhittaker) supplemented with 10% FBS. Prior to shear exposure, T/C28a2 cells were incubated for 24 hours in serum-free medium containing 1% Nutridoma-SP (Roche), a low-protein serum replacement that maintains chondrocyte phenotype. Primary HUVECs were cultured as described (Goldring, M. B., 2004). T/C28a2 cells were exposed to shear stress in media containing 1% Nutridoma by use of a parallel-plate flow chamber with a recirculating flow loop (37° C., 5% CO2) (10). HUVECs were treated similarly by circulating media supplemented with 10% FBS.
Microarray Hybridization and Analysis: Cy-3- and Cy-5-labeled probes were mixed, dried, resuspended in hybridization buffer (50% formamide, 10×SSC, 0.2% SDS, COT-I DNA, Poly(A)-DNA), and denatured. The probes were added to microarray slides printed with a set of 32,448 or 39,936 expressed sequence tags (ESTs), allowed to hybridize at 42° C. overnight, and processed as described (Abulencia, J. P., et al. 2003. Hegde, P. et al. 2000). Expression ratios were derived using TIGR Spotfinder (Abulencia, J. P. et al. 2003, Hegde, P. et al. 2000). Differentially expressed genes were identified by Significance Analysis of Microarrays, and analyzed with the software TMEV (Abulencia, J. P. et al. 2003).
Quantitative Real-Time PCR (qRT-PCR) was used to verify DNA microarray data. Incorporation of SYBR Green into PCR products was monitored with the 7900HT detection system.

ARE-driven NQO1 promoter = assay: Promoter activity assay (pNQO1/ARE-luc); settings: transfected T/C28a2 cells; SFN 1.25 μM or D3T 5 μM, 24 h, static conditions
Method: Transient Transfection and Plasmid Constructs: T/C28a2 cells were transfected with 10 μg of plasmid and 2 μg of control with Lipofectamine and Plus Reagent (Invitrogen). Cells were allowed to recover for 3 hours, incubated overnight in medium containing 1% Nutridoma, and exposed to the indicated treatments. Efficiency was assessed by flow cytometry with pEGFP-N2 (BD Biosciences). pCMV-mNrf2 and pNQO1/ARE-luc constructs were provided by N. Wakabayashi (Wakabayashi, N. et al. 2004). Igarashi, K., et al. 1994), and pBJ M-pl 10*-myc, pBJ M<<pl 10-UR, and pCG pi 10 wt constructs were provided by A. Kippel (Hu, Q., et al. 1995).
Promoter Activity Assay: T/C28a2 cells were transfected with 10 μg of pNQO1/ARE-luc and 1 μg each of pEGFP-N2 and pSV40-hRL2 (Promega) to normalize transfection efficiency. Firefly and Renilla luciferase activities were measured using the Dual-Luciferase Report Assay kit (Promega).

NQO1 = NQO1 enzyme activity in shear-activated chondrocytes; settings: T/C28a2, high shear (20 dyn/cm^2); SFN 1.25 μM, D3T 5 μM, CAY10404 6.75 μM, NS398 30 μM
Method: as §1
(§2) Cell Viability, NQO1 activity, Glutathione levels, and Prostaglandin (PG)E2 production: Cell viability was monitored with the MTT assay (Gao, X. et al. 2001). NQO1 activity and total GSH (oxidized and reduced) levels of cell lysates were determined in 96-well microtiter plates. PGE2 levels were determined in media by the Prostaglandin E2 monoclonal EIA kit (Cayman Chemical).

COX-2 = assay: Intracellular COX-2 protein staining, flow cytometry; settings: D3T 5 μM; 20 dyn/cm^2, 48 hours
Method: as §1
(§3) Intracellular Protein Staining and Western Blots: T/C28a2 cells were fixed in 1.0% formaldehyde for 10 min at 37° C., permeabilized in 90% methanol for 20 minutes on ice, and incubated at 25° C. for 10 min in blocking buffer (0.5% BSA). Specimens were then incubated with fluorophore-conjugated monoclonal antibodies specific for COX-I (COX-1/FITC) and COX-2 (COX-2/PE) (Cayman Chemical) or isotype controls (BD Biosciences) for 30 min, washed 2× in blocking buffer, and analyzed by flow cytometry. For Western blots, total cell lysates were subjected to SDS/PAGE, transferred to a membrane, and probed with caspase-9 and β-actin antibodies (Upstate).

T/C28a2 cells [2] = assay: Shear-induced PGE2 production (EIA of culture media); settings: D3T 5 μM; fluid shear 48 hours
Method: as §1, §2

T/C28a2 cells [3] = assay: Shear-induced apoptosis: DNA fragmentation (TUNEL) and mitochondrial membrane depolarization; settings: 20 dyn/cm^2, 48 h; D3T 5 μM, CAY10404 6.75 μM, NS398 30 μM
Method: as §1
DNA Fragmentation and Mitochondrial Depolarization: For DNA fragmentation, cells were fixed in 4% paraformaldehyde for 1 hour at 25° C., washed 2× in PBS, and permeabilized briefly in 0.1% Triton-X100/0.1% sodium citrate on ice. Subsequently, cells were washed 2× in PBS, labeled using the In Situ Cell Death Kit (Roche), and analyzed by flow cytometry. To quantify Mitochondrial Membrane Potential (MMP), cells were labeled using the MitoProbe JC-I Kit (Molecular Probes).

caspase-9 = assay: Caspase-9 immunoblot analysis; settings: high shear 20 dyn/cm^2
Method: as §1, §3

COX-I = assay: Intracellular COX-1 protein staining, flow cytometry; settings: D3T 5 μM; static or laminar shear 5 or 20 dyn/cm^2, 48 hours
Method: as §1, §3

[4] = 5 μM D3T (shear) vs 0.1% DMSO (static)

With `S=c1ccss1` [D3T, 1,2-dithiole-3-thione] the “COX-2 (cyclooxygenase-2) microarray intensity ratio (shear/static)” value [1, 4] was 1.3 ± 0.2, the “Caspase-9 precursor microarray intensity ratio (shear/static)” value [1, 4] was 0.8 ± 0.1 and the “GCLR (γ-glutamylcysteine ligase) microarray intensity ratio (shear/static)” value [1, 4] was 1.6 ± 0.1. The “GST μ1 (glutathione S-transferase) microarray intensity ratio (shear/static)” value [1, 4] was 1.6 ± 0.1, the “Glutathione reductase microarray intensity ratio (shear/static)” value [1, 4] was 2.8 ± 0.1 and the “HO-1 (Heme Oxygenase-1) microarray intensity ratio (shear/static)” value [1, 4] was 1.2 ± 0.1. For the same compound, the “HO-2 (Heme Oxygenase-2) microarray intensity ratio (shear/static)” value [1, 4] was 0.9 ± 0.1, the “JNK2 (c-jun N-terminal kinase 2) microarray intensity ratio (shear/static)” value [1, 4] was 1.6 ± 0.1 and the “NQO1 (NAD(P)H:quinone reductase-1) microarray intensity ratio (shear/static)” value [1, 4] was 1.3 ± 0.1. For the same compound, the “Nrf2 (NF-E2 related factor 2) microarray intensity ratio (shear/static)” value [1, 4] was 1.3 ± 0.1, the “PI3K (phosphoinositol kinase 3) microarray intensity ratio (shear/static)” value [1, 4] was 0.8 ± 0.2 and the “Transcription Factor AP-1 (c-jun) microarray intensity ratio (shear/static)” value [1, 4] was 1.4 ± 0.1. For the same compound, the “UDP-glucuronosyltransferase microarray intensity ratio (shear/static)” value [1, 4] was 1.0 ± 0.1, the “COX-1 (cyclooxygenase-1) microarray intensity ratio (shear/static)” value [1] was 1.3 ± 0.1 and the “ARE-driven NQO1 promoter luciferase activity” value (ARE-driven NQO1 promoter) was “increases the luciferase activity”. For the same compound, the “shear-induced suppression of NQO1 activity” value (NQO1) was “likewise effective in suppressing the shear-mediated reduction of phase 2 enzyme activity”, the “COX-2 protein expression in chondrocytes subjected to high shear” value (COX-2) was “nearly abrogated” and the “PGE2 production in chondrocytes subjected to high shear” value (T/C28a2 cells [2]) was “nearly abrogated”. The “shear-induced apoptosis (DNA fragmentation TUNEL, mitochondrial membrane depolarization MMP)” value (T/C28a2 cells [3]) was “essentially abrogated”, the “expression of proform (46 kDa) and active form (34 kDa) of caspase-9” value (caspase-9) was “substantially reduced expression” and the COX-I expression (COX-I) was “remains unchanged”.
